Laboratory results reported in ChEMBL document CHEMBL5209572, “Membrane potential based assay for SLC22A4 using HEK-293 SLC22A4 OE cells” (2022).

Target: T1, Solute carrier family 22 member 4 (Homo sapiens, UniProt Q9H015)
T1 sequence (Q9H015 whole entry): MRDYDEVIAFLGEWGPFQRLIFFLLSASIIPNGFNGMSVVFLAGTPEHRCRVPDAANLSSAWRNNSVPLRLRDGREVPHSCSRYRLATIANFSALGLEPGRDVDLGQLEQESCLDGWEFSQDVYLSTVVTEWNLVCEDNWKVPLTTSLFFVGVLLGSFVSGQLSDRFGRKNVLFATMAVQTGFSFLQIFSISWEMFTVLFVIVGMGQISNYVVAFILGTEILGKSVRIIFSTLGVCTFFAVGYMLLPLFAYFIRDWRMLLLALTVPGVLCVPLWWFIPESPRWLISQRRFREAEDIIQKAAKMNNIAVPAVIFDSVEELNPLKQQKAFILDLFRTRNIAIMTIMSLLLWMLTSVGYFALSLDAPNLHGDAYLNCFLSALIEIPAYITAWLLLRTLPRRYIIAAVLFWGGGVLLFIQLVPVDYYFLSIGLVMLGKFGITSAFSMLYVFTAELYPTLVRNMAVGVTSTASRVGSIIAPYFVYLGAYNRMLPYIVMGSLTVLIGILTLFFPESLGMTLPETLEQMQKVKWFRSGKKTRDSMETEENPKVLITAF
Assay: Substrate uptake by the Organic Cation/Carnitine Transporter 1 (OCTN1, SLC22A4) as assessed by the fluorescent FLIPR membrane potential dye in HEK-293 cells stably transfected with SLC22A4 (PubChem AID: 1794816)
Format: functional, cell-based, HEK293

Work on `C[N+](C)(C)[C@@H](Cc1c[nH]c(=S)[nH]1)C(=O)[O-]` yielded an EC50 of 40 µM.
